Results: patent US20080262081A1, “Novel Use of Nutraceutical Compositions Comprising Resveratrol” (priority 2005, published 2008)

Test system: phosphorylated p70S6K (Thr389)
Assay: Phosphorylated p70S6K (Thr389) level in insulin-stimulated C3H10T1/2 cells (Western blot)
Format: cell-based, Mouse
Set-up: key to Phosphorylated p70S6K (Thr389) level, % vs. Vehicle: *: under detectable level
Conditions: for Phosphorylated p70S6K (Thr389) level, % vs. Vehicle: vehicle = 100%
Method: Mouse embryonic mesenchymal stem cells, C3H10T1/2 cells, (ATCC, USA, #CCL-226), were cultured in DMEM (low glucose […], Gibco), supplemented with 10% FBS and 2 mM L-Glutamine (Gibco). 2×10^5 cells /well were seeded in 6-well plate and grown to 80% confluency. Cells were treated with either rapamycin (Tocris, UK, #1292) at 100 nM, EGCG (TEAVIGO®, DSM Nutritional Product ltd. Switzerland) at 10 microM , resveratrol (DSM Nutritional Products Ltd. Switzerland) at 0.1, 1, 10 μM or combination of EGCG (10 microM) and resveratrol (0.1,1, 10 μM) for 30 min, then stimulated with insulin (Sigma, Switzerland) at 100 nM for 30 min. Cells were washed twice with PBS and harvested in 0.4 ml NETT buffer (0.1 M NaCl, 10 mM Tris-HCL (pH 7.6), 1 mM EDTA, 1% Triton X-100, pH 7.6 ). Cell lysates were sonicated and centrifuged at 14,000 rpm for 2 min. Protein concentration was determined using BCA assay (PIERCE, USA #23223). 10 microgram whole cell extracts were loaded on SDS-gel (10-20% Tricine gradient gel) and blotted on nitrocellulose membrane (0.2 μm pore, Invitrogen, #LC2000 ). Blot was incubated first with monoclonal antibody, phosphor-p70 S6 Kinase (Thr389)(1A5) mouse mAb (Cell signaling technology, #9206) at 1:2000 dilution, then with secondary antibody, goat anti-mouse IgG HRP (Santa Cruz, USA, #SC2055) at 1:10000. Protein load was control by measuring β-actin using anti mouse β-actin (Sigma, Switzerland, #A-5441). The signals were detected using ECL plus Western Blotting Detection System (Amersham Biosciences; RPN2132). Membrane was exposed to X-ray film for 30′ (Hyperfilm ECL; High performance chemiluminescence film, Amersham Biosciences; RPN1674 ) and films were scanned with ChemiGenius 2 machine (Syngene, UK). The signals were quantified by using GeneTools software (Syngene, UK). Signal of phosphorylated p70S6K was normalized to the protein load control β-actin, and vehicle was set up as 100%.

[1] = 10 μM single agent, insulin 100 nM

| Compound | Phosphorylated p70S6K (Thr389) level, % vs. Vehicle (100 nM, 30 min pretreatment then insulin 100 nM 30 min, normalized to β-actin) | Phosphorylated p70S6K (Thr389) level, % vs. Vehicle (0.1 μM single agent, insulin 100 nM) | Phosphorylated p70S6K (Thr389) level, % vs. Vehicle (1 μM single agent, insulin 100 nM) | Phosphorylated p70S6K (Thr389) level, % vs. Vehicle [1] | effect on phosphorylated p70S6K (Thr389) amount (in words) (0.1, 1 and 10 microM) | effect on phosphorylated p70S6K (Thr389) amount (in words) (10 microM) |
| --- | --- | --- | --- | --- | --- | --- |
| CO[C@H]1C[C@@H]2CC[C@@H](C)[C@@](O)(O2)C(=O)C(=O)N2CCCC[C@H]2C(=O)O[C@H]([C@H](C)C[C@@H]2CC[C@@H](O)[C@H](OC)C2)CC(=O)[C@H](C)/C=C(\C)[C@@H](O)[C@@H](OC)C(=O)[C@H](C)C[C@H](C)/C=C/C=C/C=C/1C [Rapa, rapamycin, reference compound] | * |  |  |  |  |  |
| Oc1ccc(C=Cc2cc(O)cc(O)c2)cc1 [Resveratrol, resveratrol] |  | 95.23% | 106.9157% | 132.715% | no influence |  |
| (−)-epigallocatechin gallate [EGCG] |  |  |  | 117.20% |  | little effect |
